Data published in the supplement of paper PMC8967900.

Tested on: ALL-SIL
Assay: selective drug sensitivity score (sDSS, relative to normal bone marrow) (sDSS (score)); higher = more potent and effective on the cell line relative to normal bone marrow cells
Settings: 72 h
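Also: ALL cell lines in 384-well plates, five doses spanning 10,000-fold, each plate scaled between vehicle and 100 µmol/L benzalkonium chloride controls, sDSS an adapted area-under-curve metric.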

Row | SMILES | selective drug sensitivity score
1 | O=C(Nc1ccncc1)C(=O)c1cn(Cc2ccc(Cl)cc2)c2ccccc12 [Indibulin] (top concentration 10000 nM) | 23.4
2 | Cc1ncc(-c2ccnc(Nc3ccc(S(C)(=O)=O)cc3)n2)n1C(C)C [AZD-5438] (top concentration 10000 nM) | -3.86
3 | NC[C@@](O)(c1ccc(Cl)cc1)c1ccc(-c2cn[nH]c2)cc1 (top concentration 10000 nM) | -1.22
4 | Cn1c(Nc2ccc(C(F)(F)F)cc2)nc2cc(Oc3ccnc(-c4ncc(C(F)(F)F)[nH]4)c3)ccc21 [NVP-RAF265] (top concentration 1000 nM) | 8.28
5 | CNCc1ccc(-c2[nH]c3cc(F)cc4c3c2CCNC4=O)cc1 [Rucaparib] (top concentration 10000 nM) | 0.22
6 | O=C(CCCCCCC(=O)Nc1ccc([C@H]2O[C@@H](CSc3nc(-c4ccccc4)c(-c4ccccc4)o3)C[C@@H](c3ccc(CO)cc3)O2)cc1)NO [Tubacin] (top concentration 10000 nM) | 9.84
7 | N#CCNC(=O)c1ccc(-c2ccnc(Nc3ccc(N4CCOCC4)cc3)n2)cc1 [Momelotinib] (top concentration 10000 nM) | -1.82
8 | Nc1cccc2c1CN(C1CCC(=O)NC1=O)C2=O (stereo not given) [Lenalidomide] (top concentration 100000 nM) | -0.88
9 | CCN1CCN(Cc2ccc(Nc3ncc(F)c(-c4cc(F)c5nc(C)n(C(C)C)c5c4)n3)nc2)CC1 [Abemaciclib] (top concentration 2500 nM) | -2.66

Tested on: COG-LL-317
Assay: as above
Settings: 72 h

Row | SMILES | selective drug sensitivity score
10 | CC(C)(C)c1cnc(CSc2cnc(NC(=O)C3CCNCC3)s2)o1 [SNS-032] (top concentration 10000 nM) | 1.66
11 | Cn1cncc1[C@@](N)(c1ccc(Cl)cc1)c1ccc2c(c1)c(-c1cccc(Cl)c1)cc(=O)n2C [Tipifarnib] (top concentration 10000 nM) | 15.3
12 | COc1ccccc1S(=O)(=O)Nc1ccc2c(c1)CN(C)C(=O)N2 [PFI-1] (top concentration 30000 nM) | 2.5
13 | Cc1cn(-c2cc(NC(=O)c3ccc(C)c(Nc4nccc(-c5cnccn5)n4)c3)cc(C(F)(F)F)c2)cn1 [Radotinib] (top concentration 10000 nM) | 0
14 | CC[C@H](Nc1ncnc2[nH]cnc12)c1nc2cccc(F)c2c(=O)n1-c1ccccc1 [Idelalisib] (top concentration 10000 nM) | 0.04
15 | Cc1noc2c1-c1ccccc1C(c1ccc(Cl)cc1)=N[C@H]2CC(N)=O [CPI-0610] (top concentration 10000 nM) | 3.3
16 | C=C(c1ccc(C(=O)O)cc1)c1cc2c(cc1C)C(C)(C)CCC2(C)C [Bexarotene] (top concentration 10000 nM) | -5.1
17 | CC1(COc2ccc3c(c2)ncn3-c2ccc3cccc(N4CCC(N)CC4)c3n2)COC1 [Crenolanib] (top concentration 10000 nM) | 2.08
18 | O=C(Nc1cc(Oc2cc(F)c(NC(=O)C3(C(=O)Nc4ccc(F)cc4)CC3)cc2F)ccn1)C1CC1 [Altiratinib] (top concentration 10000 nM) | -0.46
19 | O=C(Nc1ccncc1)C(=O)c1cn(Cc2ccc(Cl)cc2)c2ccccc12 [Indibulin] (top concentration 10000 nM) | 6.24
20 | Cc1ncc(-c2ccnc(Nc3ccc(S(C)(=O)=O)cc3)n2)n1C(C)C [AZD-5438] (top concentration 10000 nM) | -0.56
21 | NC[C@@](O)(c1ccc(Cl)cc1)c1ccc(-c2cn[nH]c2)cc1 (top concentration 10000 nM) | 0.98
22 | Cn1c(Nc2ccc(C(F)(F)F)cc2)nc2cc(Oc3ccnc(-c4ncc(C(F)(F)F)[nH]4)c3)ccc21 [NVP-RAF265] (top concentration 1000 nM) | 7.28
23 | CNCc1ccc(-c2[nH]c3cc(F)cc4c3c2CCNC4=O)cc1 [Rucaparib] (top concentration 10000 nM) | 6.52
24 | O=C(CCCCCCC(=O)Nc1ccc([C@H]2O[C@@H](CSc3nc(-c4ccccc4)c(-c4ccccc4)o3)C[C@@H](c3ccc(CO)cc3)O2)cc1)NO [Tubacin] (top concentration 10000 nM) | 10.3
25 | N#CCNC(=O)c1ccc(-c2ccnc(Nc3ccc(N4CCOCC4)cc3)n2)cc1 [Momelotinib] (top concentration 10000 nM) | -5.32
26 | Nc1cccc2c1CN(C1CCC(=O)NC1=O)C2=O (stereo not given) [Lenalidomide] (top concentration 100000 nM) | 2.92
27 | CCN1CCN(Cc2ccc(Nc3ncc(F)c(-c4cc(F)c5nc(C)n(C(C)C)c5c4)n3)nc2)CC1 [Abemaciclib] (top concentration 2500 nM) | -2.36

Tested on: COG-LL-355h
Assay: as above
Settings: 72 h

Row | SMILES | selective drug sensitivity score
28 | CC(C)(C)c1cnc(CSc2cnc(NC(=O)C3CCNCC3)s2)o1 [SNS-032] (top concentration 10000 nM) | 0.16
29 | Cn1cncc1[C@@](N)(c1ccc(Cl)cc1)c1ccc2c(c1)c(-c1cccc(Cl)c1)cc(=O)n2C [Tipifarnib] (top concentration 10000 nM) | 4.5
30 | COc1ccccc1S(=O)(=O)Nc1ccc2c(c1)CN(C)C(=O)N2 [PFI-1] (top concentration 30000 nM) | 8.7
31 | Cc1cn(-c2cc(NC(=O)c3ccc(C)c(Nc4nccc(-c5cnccn5)n4)c3)cc(C(F)(F)F)c2)cn1 [Radotinib] (top concentration 10000 nM) | 0
32 | CC[C@H](Nc1ncnc2[nH]cnc12)c1nc2cccc(F)c2c(=O)n1-c1ccccc1 [Idelalisib] (top concentration 10000 nM) | 3.14
33 | Cc1noc2c1-c1ccccc1C(c1ccc(Cl)cc1)=N[C@H]2CC(N)=O [CPI-0610] (top concentration 10000 nM) | 10.3
34 | C=C(c1ccc(C(=O)O)cc1)c1cc2c(cc1C)C(C)(C)CCC2(C)C [Bexarotene] (top concentration 10000 nM) | -5.1
35 | CC1(COc2ccc3c(c2)ncn3-c2ccc3cccc(N4CCC(N)CC4)c3n2)COC1 [Crenolanib] (top concentration 10000 nM) | 0.48
36 | O=C(Nc1cc(Oc2cc(F)c(NC(=O)C3(C(=O)Nc4ccc(F)cc4)CC3)cc2F)ccn1)C1CC1 [Altiratinib] (top concentration 10000 nM) | -0.36
37 | O=C(Nc1ccncc1)C(=O)c1cn(Cc2ccc(Cl)cc2)c2ccccc12 [Indibulin] (top concentration 10000 nM) | -1.46
38 | Cc1ncc(-c2ccnc(Nc3ccc(S(C)(=O)=O)cc3)n2)n1C(C)C [AZD-5438] (top concentration 10000 nM) | 3.94
39 | NC[C@@](O)(c1ccc(Cl)cc1)c1ccc(-c2cn[nH]c2)cc1 (top concentration 10000 nM) | 3.28
40 | Cn1c(Nc2ccc(C(F)(F)F)cc2)nc2cc(Oc3ccnc(-c4ncc(C(F)(F)F)[nH]4)c3)ccc21 [NVP-RAF265] (top concentration 1000 nM) | 10.3
41 | CNCc1ccc(-c2[nH]c3cc(F)cc4c3c2CCNC4=O)cc1 [Rucaparib] (top concentration 10000 nM) | 0.92
42 | O=C(CCCCCCC(=O)Nc1ccc([C@H]2O[C@@H](CSc3nc(-c4ccccc4)c(-c4ccccc4)o3)C[C@@H](c3ccc(CO)cc3)O2)cc1)NO [Tubacin] (top concentration 10000 nM) | 7.14
43 | N#CCNC(=O)c1ccc(-c2ccnc(Nc3ccc(N4CCOCC4)cc3)n2)cc1 [Momelotinib] (top concentration 10000 nM) | -0.92
44 | Nc1cccc2c1CN(C1CCC(=O)NC1=O)C2=O (stereo not given) [Lenalidomide] (top concentration 100000 nM) | 2.82
45 | CCN1CCN(Cc2ccc(Nc3ncc(F)c(-c4cc(F)c5nc(C)n(C(C)C)c5c4)n3)nc2)CC1 [Abemaciclib] (top concentration 2500 nM) | 6.44
